Laboratory results: article PMC10136548, “Evaluation of 3D Human Intestinal Organoids as a Platform for EV-A71 Antiviral Drug Discovery” (Cells, 2023)

Experiments:
HCV = tested on: HCV; set-up: method as in PMID 29534607, PMID 20006612, PMID 19426125; conditions: human, HCV infection, after 8 to 12 weeks of treatment; cited from earlier work
enteroids = conditions: cited from earlier work
EV-A71 BrCr strain [1] = test: CPE inhibition in EV-A71-infected HIOs; format: cell-based, Enterovirus A71; conditions: for EV-A71-induced CPE upon visual inspection: 1.25 μM, 72 hpi; for Selectivity Index (SI) = CC50/EC50: EC50 from CPE inhibition; for EC50: Enterovirus A, EVA71, EV-A71 MOI 0.1, 72 h, read-out: EC50 based on CPE inhibition
Method: (§1) EV-A71 BrCr strain, a gift from Prof. F. van Kuppeveld (University of Utrecht, Utrecht, The Netherlands), was propagated in RD cells, cultured in 2% FBS-DMEM at 37 °C under 5% CO2. […] EV-A71 stock titer was determined by the 50% tissue culture infective dose (TCID50) assay (Reed and Muench, 1938).
(§2) For infection, HIOs were mechanically fragmented by vigorously pipetting using a P1000 to expose the apical surface to the virus inoculum as previously described. After virus inoculation (MOI = 0.01, 0.1, or 1) with EV-A71 or mock infection, the mixture was then incubated for 2 h at 37 °C for virus adsorption. After washing, the infected HIO fragments were mixed with 20% Matrigel-organoid growth medium and seeded at 10,000 cells/well in a 96-well plate pre-coated with 20% Matrigel-organoid growth medium at 50 µL/well.
(§3) Viability of HIOs and RD cells were determined by Cell Titer-Glo® 3D Cell Viability Assay (Promega, Fitchburg, WI, USA) and Cell Titer-Glo® Luminescent Cell Viability Assay (Promega), respectively. According to the manufacturer’s instructions, in a white 96-well plate (Greiner Bio-One, Stonehouse, UK), a 1:1 ratio of reagent and spent culture medium was added to the wells and mixed, and the luminescence signal was measured by CLARIO star plus (B M G Labtech Ltd., Aylesbury, UK).
(§4) For determination of compounds’ half maximal cytotoxic concentration (CC50), the non-infected HIOs/cells were treated with compounds (0.5–100 μM) for 72 h. The viability % was calculated as follows: (luminescence reading compound treated)/(luminescence reading DMSO control) × 100. The CC50 was calculated using non-linear regression (curve fit) with GraphPad Prism 9 (GraphPad, La Jolla, CA, USA). […] The CPE inhibition % was calculated as follows: (luminescence reading compound treated)/(luminescence reading DMSO control) × 100. The EC50 was calculated using non-linear regression (curve fit) with GraphPad Prism 9 (GraphPad).
(§5) Figure 4 Comparison of antiviral activity determined by CPE inhibition and viral RNA yield between HIOs and RD cells. (A) Viability of HIOs and RD cells was measured, using Cell Titer-Glo 3D or Cell Titer-Glo, after 72 h of EV-A71 infection at MOI 0.1 and incubation with compounds at indicated concentrations. CPE inhibition is calculated based on percentage of mock-infected control. The half maximal effective concentration (EC50) was calculated using Prism nonlinear regression (GraphPad Prism 9). (B) For viral RNA yield, HIOs and RD cells were infected with EV-A71 at an MOI of 0.1 and treated with compounds at indicated concentrations for 72 h before total culture of HIOs or supernatant of cells were collected by combining triplicates and determined by RT-qPCR. Viral RNA yield is calculated based on percentage of mock-infected control. The EC50 was calculated using Prism nonlinear regression (GraphPad Prism 9). (C) Brightfield images of mock control, infection treated with 1.25 µM rupintrivir, and infected control HIOs and RD cells at 72 hpi. All images were acquired using the same objective. Scale bar, […]. (D) Images represent mock-, EV-A71-infected HIOs (0.1 MOI), and EV-A71-infected HIOs (0.1 MOI) treated with rupintrivir (10 µM) at 48 hpi: DAPI (blue) for nucleus, phalloidin (red) for F-actin, and dsRNA (green). Scale bar, […]. Data are the mean ± SEM of at least six independent experiments; each carried out in triplicate.

[2] = Cytotoxicity (Cell Titer-Glo 3D viability) in non-infected HIOs; format: cell-based; conditions: human; for CC50 at 72 h: non-infected HIOs, compounds 0.5–100 μM
Method: HiPSCs were cultured in colonies on Matrigel (Corning Inc., Corning, NY, USA) in mTeSR1 medium (STEMCELL Technologies, Vancouver, BC, Canada). HIOs were differentiated from the hiPSC line using STEMdiff™ Intestinal Organoid Kit (STEMCELL Technologies) following the manufacturer’s instructions. Briefly, hiPSCs were plated and differentiated towards definitive endoderm (day 3), and then to mid-/hindgut cells (day 5–9 post seeding). The spheroids generated during the mid-/hindgut stage were embedded in Matrigel and grown in intestinal growth media for further differentiation and expansion into intestinal organoids (30–45 days post hiPSCs seeding). After maturation and for long-term culture, HIOs were passaged twice a week, and medium was changed if needed every two days.
as §3
(§6) For determination of compounds’ half maximal cytotoxic concentration (CC50), the non-infected HIOs/cells were treated with compounds (0.5–100 μM) for 72 h. The viability % was calculated as follows: (luminescence reading compound treated)/(luminescence reading DMSO control) × 100. The CC50 was calculated using non-linear regression (curve fit) with GraphPad Prism 9 (GraphPad, La Jolla, CA, USA). For determination of compounds half maximal effective concentration (EC50), the infected HIOs/cells were treated with DMSO (i.e., 0 µM) or compounds (0.15–40 μM) for 72 h. The CPE inhibition % was calculated as follows: (luminescence reading compound treated)/(luminescence reading DMSO control) × 100. The EC50 was calculated using non-linear regression (curve fit) with GraphPad Prism 9 (GraphPad).

human rhinovirus (HRV) = tested on: human rhinovirus (HRV); set-up: method as in PMID 6113314, PMID 2984980; conditions: cited from earlier work
[3] = Cytotoxicity (Cell Titer-Glo viability) in non-infected RD cells; format: cell-based; conditions: human, non-infected RD cells (ATCC CCL-136); for CC50 at 72 h: non-infected RD cells, compounds 0.5–100 μM
Method: RD cells (ATCC, CCL-136, Manassas, VA, USA) were maintained in Dulbecco’s modified Eagle’s medium (DMEM) (Gibco, Thermo Fisher Scientific, Waltham, MA, USA) supplemented with 10% fetal bovine serum (FBS) (Gibco), 1% L-glutamine (Gibco), 1% sodium bicarbonate (Gibco), and 1% penicillin-streptomycin (Gibco). The cell culture was incubated at 37 °C under 5% CO2.
as §3, §6

EV-A71 BrCr strain [4] = test: Viral RNA yield (RT-qPCR) in EV-A71-infected HIOs; format: cell-based, Enterovirus A71; conditions: for Selectivity Index (SI) = CC50/EC50: EC50 from RNA yield; for EC50: Enterovirus A, EVA71, EV-A71 MOI 0.1, 72 h, RT-qPCR, read-out: EC50 based on RNA yield
Method: as §1, §2
(§7) RNA was extracted from harvested samples using RNeasy Plus Mini Kit (Qiagen, Hilden, Germany). cDNA was created from the isolated RNA using High-Capacity cDNA Reverse Transcription Kit (ThermoFisher Scientific, Waltham, MA, USA) according to the manufacturer’s instructions.
(§8) For EV-A71 replication quantification, each 10 µL reaction mixture contained: 5 µL of Master Mix, 1.5 µL of RNase-free water, 0.5 µL each of gene-specific forward and reverse primer, and 3 µL of cDNA as template. The reaction plate was loaded in a LightCycler® 480 Real-Time PCR System (Roche) and ran at 95 °C for 3 min for pre-incubation, followed by 40 amplification cycles of 95 °C for 15 s and 60 °C for 60 s. Signal detection and measurements were taken in each amplification cycle. The EV-A71 viral loads in the samples were detected with the PanEV primer using a previously described customized primers probe mix (Integrated DNA Technologies, Coralville, IA, USA). The viral gene copy number was determined by absolute quantification and making a standard curve using custom gBlocks™ Gene Fragments (Integrated DNA Technologies) (5′-[…]-3′).
as §5

EV-A71 BrCr strain [5] = test: CPE inhibition in EV-A71-infected RD cells; format: cell-based, Enterovirus A71; conditions: for EV-A71-induced CPE upon visual inspection: 1.25 μM, 72 hpi; for Selectivity Index (SI) = CC50/EC50: EC50 from CPE inhibition; for EC50: Enterovirus A, EVA71, EV-A71 MOI 0.1, 72 h, read-out: EC50 based on CPE inhibition
Method: as §1
(§9) For RD cell line infection, 20,000 cells/well were cultured in 96-well plate at 37 °C for 24 h. To prepare virus inoculum (MOI = 0.01, 0.1, or 1), EV-A71 was diluted in 2% FBS-DMEM. Medium on cell monolayer was removed, and the inoculum was added for 1 h at 37 °C for virus adsorption. After washing, the monolayer was cultured in DMEM supplemented with 2% FBS.
as §3, §4, §5

EV-A71 BrCr strain [6] = test: Viral RNA yield (RT-qPCR) in EV-A71-infected RD cells; format: cell-based, Enterovirus A71; conditions: for Selectivity Index (SI) = CC50/EC50: EC50 from RNA yield; for EC50: Enterovirus A, EVA71, EV-A71 MOI 0.1, 72 h, RT-qPCR, read-out: EC50 based on RNA yield
Method: as §1, §9, §7, §8, §5

HRV = tested on: HRV; set-up: method as in PMID 14638501; conditions: human; cited from earlier work

SMILES	EV-A71-induced CPE upon visual inspection (EV-A71 BrCr strain [1])	Selectivity Index (SI) = CC50/EC50 (EV-A71 BrCr strain [1])	EC50 (EV-A71 BrCr strain [1])	CC50 at 72 h [2]	CC50 at 72 h [3]	Selectivity Index (SI) = CC50/EC50 (EV-A71 BrCr strain [4])	EC50 (EV-A71 BrCr strain [4])	EV-A71-induced CPE upon visual inspection (EV-A71 BrCr strain [5])	Selectivity Index (SI) = CC50/EC50 (EV-A71 BrCr strain [5])	EC50 (EV-A71 BrCr strain [5])	Selectivity Index (SI) = CC50/EC50 (EV-A71 BrCr strain [6])	EC50 (EV-A71 BrCr strain [6])	further results
CC(C)[C@H](N)C(=O)O[C@@H]1[C@@H](CO)O[C@@H](n2ccc(N)nc2=O)[C@]1(C)O [Valopicitabine]	–	–	–	–	–	–	–	–	–	–	–	–	side effects during clinical study (HCV): gastrointestinal side effects
CCC(C)n1ncn(-c2ccc(N3CCN(c4ccc(OCC5COC(Cn6cncn6)(c6ccc(Cl)cc6Cl)O5)cc4)CC3)cc2)c1=O (stereo not shown) [itraconazole]	–	–	–	–	–	–	–	–	–	–	–	–	cytotoxicity in enteroids compared to cell lines (enteroids): enhanced cytotoxicity
CC(C)S(=O)(=O)n1c(N)nc2ccc(/C(=N/O)c3ccccc3)cc21 [Enviroxime, enviroxime]	reduced	60	400 ± 200 nM	24000 ± 7000 nM	28000 ± 2000 nM	17	1400 ± 300 nM	reduced	467	60 ± 1 nM	140	200 ± 40 nM	viability at 72 h, 100 µM ([2]; HIOs, 100 µM): 0%; side effects in clinical studies (human rhinovirus (HRV); HRV infection): gastrointestinal side effects; clinical effects against infection (human rhinovirus (HRV)): no significant clinical effects; viability at 72 h, 100 µM ([3]; RD cells, highest tested concentration 100 μM): 20%
CCOC(=O)/C=C/[C@H](C[C@@H]1CCNC1=O)NC(=O)[C@@H](CC(=O)[C@@H](NC(=O)c1cc(C)on1)C(C)C)Cc1ccc(F)cc1 [Rupintrivir, rupintrivir]	reduced	>667	< 150 nM	> 100000 nM	> 100000 nM	>59	1700 ± 400 nM	reduced	>2857	< 35 nM	>2857	< 35 nM	protection from EV-A71-induced CPE (EV-A71 BrCr strain [1]; lowest concentration tested 0.15 μM): full protection; adverse side effects or treatment effects in phase II clinical studies (HRV): no adverse side effects or treatment effects; protection from EV-A71-induced CPE (EV-A71 BrCr strain [5]; lowest concentration tested 0.035 μM): full protection; viral RNA levels (EV-A71 BrCr strain [6]; at all tested concentrations, MOI 0.1, 72 h): 10 ± 3%
C[C@@]1(O)[C@H](O)[C@@H](CO)O[C@H]1n1ccc(N)nc1=O [2′CMC, 2′-C-methylcytidine]	–	48	1000 ± 300 nM	48000 ± 1000 nM	> 100000 nM	32	1500 ± 300 nM	–	>76	1300 ± 40 nM	>50	2000 ± 400 nM	reduction of virus-induced CPE (maximum) (EV-A71 BrCr strain [1]; ATP-based viability assay, plateau from 2.5 μM to 20 μM): up to 66 ± 17%; protection from virus-induced CPE (EV-A71 BrCr strain [5]): complete protection
